Tests used:
Plasma = assay: Anticoagulant activity in human plasma assessed as drug level causing 1.5 times prolongation of prothrombin time; assay type: functional
Coagulation factor X [1] = target: T1, Coagulation factor X (Homo sapiens, UniProt P00742); assay: Inhibition of human F10a by fluorescence assay
Coagulation factor X [2] = target: T1, Coagulation factor X; assay: Inhibition of human F10a by chromogenic assay
Albumin = Albumin (Homo sapiens, UniProt P02768); assay: Binding affinity to human serum albumin; assay type: ADME; settings: isolated protein
[3] = Volume of distribution at steady state in Sprague-Dawley rat; assay type: ADME, organism-based; settings: in vivo, read-out: Vdss
[4] = Plasma clearance in Sprague-Dawley rat; assay type: ADME, organism-based
[5] = Oral bioavailability in Sprague-Dawley rat; assay type: ADME, organism-based; settings: in vivo
[6] = Half life in Sprague-Dawley rat; assay type: ADME, organism-based; settings: in vivo

T1 sequence (P00742 41-179 limits assumed): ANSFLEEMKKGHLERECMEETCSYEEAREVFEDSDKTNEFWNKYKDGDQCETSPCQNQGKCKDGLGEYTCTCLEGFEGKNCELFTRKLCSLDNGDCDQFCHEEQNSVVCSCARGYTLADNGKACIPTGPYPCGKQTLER
T1 sequence (P00742 235-488 limits assumed): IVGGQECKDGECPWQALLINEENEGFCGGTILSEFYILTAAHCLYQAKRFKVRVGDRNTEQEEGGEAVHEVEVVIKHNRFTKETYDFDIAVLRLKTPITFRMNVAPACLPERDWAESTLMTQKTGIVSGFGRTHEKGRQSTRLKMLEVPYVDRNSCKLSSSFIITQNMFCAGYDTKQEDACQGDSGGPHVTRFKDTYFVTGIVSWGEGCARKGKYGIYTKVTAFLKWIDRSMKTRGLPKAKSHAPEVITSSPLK
Sequence of Albumin (P02768 whole entry): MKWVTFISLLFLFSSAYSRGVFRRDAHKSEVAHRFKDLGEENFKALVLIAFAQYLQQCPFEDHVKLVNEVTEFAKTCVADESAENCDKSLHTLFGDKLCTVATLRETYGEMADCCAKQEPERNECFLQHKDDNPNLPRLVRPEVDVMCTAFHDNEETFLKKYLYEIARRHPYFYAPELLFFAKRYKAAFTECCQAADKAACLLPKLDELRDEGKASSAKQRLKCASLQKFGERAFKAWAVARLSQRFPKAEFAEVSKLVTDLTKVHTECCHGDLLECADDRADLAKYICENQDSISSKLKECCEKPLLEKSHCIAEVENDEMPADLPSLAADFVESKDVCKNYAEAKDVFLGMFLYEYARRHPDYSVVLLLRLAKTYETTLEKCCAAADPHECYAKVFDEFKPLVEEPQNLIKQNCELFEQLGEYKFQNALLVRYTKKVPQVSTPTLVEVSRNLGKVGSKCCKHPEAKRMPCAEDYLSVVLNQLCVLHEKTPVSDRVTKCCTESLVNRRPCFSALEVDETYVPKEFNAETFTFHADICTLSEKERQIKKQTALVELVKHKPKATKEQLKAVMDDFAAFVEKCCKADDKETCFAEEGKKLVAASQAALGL

| SMILES | Activity (Plasma) [µM] | Ki (Coagulation factor X [1]) [nM] | further results |
| --- | --- | --- | --- |
| Cn1ccnc1-c1ccc(N2CCC(NS(=O)(=O)c3ccc4cc(Cl)ccc4c3)C2=O)c(F)c1 (stereo not given) | 54.5 | 1.1 |  |
| CC(C)(C)c1ccccc1-c1ccc(N2CCC(NS(=O)(=O)/C=C/c3ccc(Cl)s3)C2=O)nc1 (stereo not given) |  |  | Ki (Coagulation factor X [2]): 2330 nM |
| O=C1C(NS(=O)(=O)c2ccc3cc(Cl)ccc3c2)CCN1c1ccc(-c2ccncc2)cc1F (stereo not given) | 92.9 | 8.9 |  |
| O=C1C(NS(=O)(=O)c2ccc3cc(Cl)ccc3c2)CCN1c1ccc(-n2cccn2)cc1F (stereo not given) | >100 | 2.7 |  |
| CN(C)C(=O)c1ccccc1-c1ccc(N2CCC(NS(=O)(=O)/C=C/c3ccc(Cl)s3)C2=O)nc1 (stereo not given) | 78.6 | 11.8 |  |
| CC(C)Oc1ccccc1-c1ccc(N2CCC(NS(=O)(=O)/C=C/c3ccc(Cl)s3)C2=O)nc1 (stereo not given) | >100 | 180 |  |
| O=C1C(NS(=O)(=O)c2ccc3cc(Cl)ccc3c2)CCN1c1ccc(-n2ccnc2)cc1F (stereo not given) | >100 | 4.4 |  |
| O=C1C(NS(=O)(=O)/C=C/c2ccc(Cl)s2)CCN1c1ccc(-c2ccccc2C(F)(F)F)cn1 (stereo not given) | >100 | 6 |  |
| CS(=O)(=O)c1ccccc1-c1ccc(N2CCC(NS(=O)(=O)/C=C/c3cc4ccc(Cl)cc4s3)C2=O)c(F)c1 (stereo not given) | 28.7 | 0.1 |  |
| CS(=O)(=O)Nc1ccccc1-c1ccc(N2CCC(NS(=O)(=O)/C=C/c3ccc(Cl)s3)C2=O)nc1 (stereo not given) | 58.4 |  | Activity (Albumin): 98.2%; Ki (Coagulation factor X [2]): 14 nM |
| CS(=O)(=O)c1ccccc1-c1ccc(N2CCC(NS(=O)(=O)c3cc4cc(Cl)ccc4o3)C2=O)c(F)c1 (stereo not given) | >100 | 6.2 |  |
| CS(=O)(=O)c1ccccc1-c1ccc(N2CCC(NS(=O)(=O)/C=C/c3ccc(Cl)s3)C2=O)nc1 (stereo not given) |  |  | Activity (Albumin): 97.6%; Vd [3]: 0.7 L/kg; clearance [4]: 20 mL/min/kg; bioavailability [5]: 29%; half-life [6]: 36 min |
| CN(C)S(=O)(=O)c1ccccc1-c1ccc(N2CCC(NS(=O)(=O)/C=C/c3ccc(Cl)s3)C2=O)nc1 (stereo not given) | 65.1 | 0.4 |  |
| CNS(=O)(=O)c1ccccc1-c1ccc(N2CCC(NS(=O)(=O)/C=C/c3ccc(Cl)s3)C2=O)nc1 (stereo not given) | 25 | < 0.3 |  |
| CS(=O)(=O)c1ccccc1-c1ccc(N2CCC(NS(=O)(=O)c3cc4nc(Cl)ccc4s3)C2=O)c(F)c1 (stereo not given) | > 100 | 2 |  |
| O=C1C(NS(=O)(=O)c2ccc3cc(Cl)ccc3c2)CCN1c1ccc(-c2ccoc2)cc1F (stereo not given) | >100 | 74.6 |  |
| N#Cc1ncccc1-c1ccc(N2CCC(NS(=O)(=O)c3ccc4cc(Cl)ccc4c3)C2=O)c(F)c1 (stereo not given) | 64.3 | 0.7 |  |
| CS(=O)(=O)c1ccccc1-c1ccc(N2CCC(NS(=O)(=O)c3cc4ccc(Cl)cc4o3)C2=O)c(F)c1 (stereo not given) | >100 | 1.1 | Activity (Albumin): 99.6% |
| O=C1C(NS(=O)(=O)c2ccc3cc(Cl)ccc3c2)CCN1c1ccc(-c2ccccc2)cn1 (stereo not given) | >100 | 80 |  |
| CS(=O)(=O)c1ccccc1-c1ccc(N2CCC(NS(=O)(=O)/C=C/c3ccc(Cl)s3)C2=O)c(F)c1 (stereo not given) |  |  | Activity (Albumin): 97.6% |
| CN(c1ccccc1-c1ccc(N2CCC(NS(=O)(=O)/C=C/c3ccc(Cl)s3)C2=O)nc1)S(C)(=O)=O (stereo not given) | >100 | 9.1 |  |
| Cn1cnc(-c2ccc(N3CCC(NS(=O)(=O)c4ccc5cc(Cl)ccc5c4)C3=O)c(F)c2)c1 (stereo not given) | >100 | 15.5 |  |
| CS(=O)(=O)c1ccccc1-c1ccc(N2CCC(NS(=O)(=O)/C=C/c3ccc(Cl)cc3)C2=O)c(F)c1 (stereo not given) | 30 | < 0.4 | Vd [3]: 0.5 L/kg; clearance [4]: 9.2 mL/min/kg; bioavailability [5]: 41%; half-life [6]: 48 min |
| O=C1C(NS(=O)(=O)c2ccc3cc(Cl)ccc3c2)CCN1c1ccc(-c2cccnc2)cc1F (stereo not given) | >100 | 6.3 |  |
| NS(=O)(=O)c1ccccc1-c1ccc(N2CCC(NS(=O)(=O)/C=C/c3ccc(Cl)s3)C2=O)nc1 (stereo not given) |  |  | Activity (Albumin): 98% |
| O=C1C(NS(=O)(=O)c2ccc3cc(Cl)ccc3c2)CCN1c1ccc(-c2ccccc2)cc1F (stereo not given) | >100 | 215 |  |
| CS(=O)(=O)c1ccccc1-c1ccc(N2CCC(NS(=O)(=O)c3ccc4cc(Cl)ccc4c3)C2=O)c(F)c1 (stereo not given) |  |  | Activity (Albumin): 98.8%; Vd [3]: 1.1 L/kg; clearance [4]: 20 mL/min/kg; bioavailability [5]: 10%; half-life [6]: 54 min |
| N#Cc1ccccc1-c1ccc(N2CCC(NS(=O)(=O)/C=C/c3ccc(Cl)s3)C2=O)nc1 (stereo not given) | 73.7 | 1.8 |  |
